Laboratory results published in patent US20240194290A1, “HIDDEN ANTIBIOTICS IN THE HUMAN PROTEOME” (THE TRUSTEES OF THE UNIVERSITY OF PENNSYLVANIA, priority 2021, published 2024).
Ends that are not written are not given here.

What was measured:
[1] = system: Gram-negative gut commensals (A. muciniphila and Bacteroidetes species); test: Antibacterial assay against Gram-negative gut commensals; assay type: cell-based
From the text: The 13 most abundant members of the human gut microbiota^15 were exposed to increasing concentrations of the peptides. Species from four different phyla were used to determine susceptibility to the encrypted peptides: Akkermansia muciniphila (Verrucomicrobia); Bacteroides fragilis, Bacteroides thetaiotaomicron, Bacteroides vulgatus, Bacteroides uniformis, Bacteroides eggerthi, Parabacteroidetes distasonis, and Prevotella copri (Bacteroidetes); Collinsella aerofaciens (Actinobacteria); and Clostridium scindens and Clostridium spiroforme (Firmicutes).
Methods: Bacterial strains and media. […] Minimum inhibitory concentrations (MICs) of peptides were determined using the broth microdilution technique in LB, NB and supplemented BHI with an initial inoculum of 5×10^6 cells in nontreated polystyrene microtiter plates (Corning, USA). […]

[2] = system: A. baumannii ATCC19606; test: Skin abscess infection mouse model; assay type: in vivo, Acinetobacter baumannii; conditions: for anti-infective activity (FIG. 4B): 25 μmol L^−1, A. baumannii ATCC19606; for reduction of bacterial load / bacterial counts: mice, single dose 25 μmol L^−1 to infected area, A. baumannii
From the text: (§1) FIG. 4. Anti-infective activity and synergistic interactions of encrypted peptides in vivo. (FIG. 4A) Schematic of the skin abscess mouse model used to assess the anti-infective activity of selected encrypted peptides from plasma proteins. […] (FIG. 4C) Mouse weight was monitored throughout the experiment (2 days) to rule out potential toxic effects of the encrypted peptides. (FIG. 4D) Schematic of the neutropenic thigh infection mouse model used to assess the anti-infective activity of selected encrypted peptides from plasma proteins. […] (FIG. 4F) Mouse weight was monitored throughout the experiment (8 days) to rule out potential toxic effects of the encrypted peptides.
(§2) To test whether the peptides retain their antimicrobial activity in a complex living system, their properties in two mouse models were assessed. […] Since these peptides are mostly found in plasma, a relevant skin abscess mouse model was used to test their anti-infective activity (FIG. 4A). Mice were infected with bacterial loads of 10^5 and 10^6 cells in 20 μL of the clinically relevant Gram-negative pathogens P. aeruginosa and A. baumannii, respectively (FIG. 4B). […] In order to validate the synergistic effects obtained in vitro (FIG. 3D and FIG. 9), infected mice were treated with combinations of encrypted peptides (FIG. 4B). […] No damage or deleterious effects exerted by the peptides were detected in the mice in any of our experiments.
(§3) Methods: Skin abscess infection mouse model. A. baumannii ATCC19606 and P. aeruginosa strain PAO1 were used to infect the murine skin. Briefly, bacteria were grown in tryptic soy broth (TSB) medium. Subsequently, cells were washed twice with sterile PBS (pH 7.4, 13,000 rpm for 1 min), and resuspended to a final concentration of 1×10^5 and 1×10^6 CFU/20 μL for A. baumannii and P. aeruginosa, respectively. Female CD-1 mice (six-weeks old) were anesthetized with isoflurane and had their backs shaved and a superficial linear skin abrasion was made with a needle in order to damage the stratum corneum and upper-layer of the epidermis. An aliquot of 20 μL containing the bacterial load in PBS was inoculated over each defined area containing the scratch with a pipette tip. […] Animals were euthanized and the area of scarified skin was excised two- and four-days post-infection, homogenized using a bead beater for 20 minutes (25 Hz), and 10-fold serially diluted for CFU quantification. […] Prior to each injection, mice were anesthetized with isoflurane and monitored (respiratory rate and pedal reflexes). Next, we monitored the formation of the abscess and euthanized the mice. The infected area was excised three-days post-infection, homogenized using a bead beater for 20 min (25 Hz), and 10-fold serially diluted for CFU quantification. […]

[3] = system: A. baumannii ATCC19606; test: Neutropenic thigh infection mouse model; assay type: in vivo, Acinetobacter baumannii; conditions: for anti-infective activity (FIG. 4E): alone, A. baumannii ATCC19606; for decrease of bacterial counts compared to untreated controls: mice, 25 μmol L^−1 intramuscular, three days post-treatment, A. baumannii
From the text: as §1
Next, the efficacy of the same encrypted peptides (SCUB1-SKE25 and SCUB3-MLP22) was assessed in monotherapy and in combination therapy in a murine thigh infection model (FIG. 4D). This preclinical model is sensitive, standardized, and widely used for assessing antibiotic translatability^43,44. Briefly, mice were rendered neutropenic by cyclophosphamide treatment prior to intramuscular infection with 10^6 cells mL^−1 of the bacterial pathogens P. aeruginosa and A. baumannii (FIG. 4E). Either a single dose of each encrypted peptide (at 25 μmol L^−1) or their combination (also at 25 μmol L^−1) were delivered to the infected site via intramuscular administration. Three days post-treatment, on average the peptides reduced the bacterial load of P. aeruginosa and A. baumannii by 4 and 2 orders of magnitude, respectively, compared to untreated mice.
as §3, with “epidermis.” for “epidermis. An aliquot of 20 μL containing the bacterial load in PBS was inoculated over each defined area containing the scratch with a pipette tip.”

[4] = system: P. aeruginosa PAO1; test: Skin abscess infection mouse model; assay type: in vivo, Pseudomonas aeruginosa; conditions: for anti-infective activity (FIG. 4B): 25 μmol L^−1, P. aeruginosa PAO1; for reduction of bacterial load / bacterial counts: mice, single dose 25 μmol L^−1 to infected area, P. aeruginosa
From the text: as §1, §2, §3

Row | Sequence | activity against Gram-negative gut commensals [1] | anti-infective activity (FIG. 4B) [2] | reduction of bacterial load / bacterial counts [2] | anti-infective activity (FIG. 4E) [3] | decrease of bacterial counts compared to untreated controls [3] | anti-infective activity (FIG. 4B) [4] | reduction of bacterial load / bacterial counts [4]
1 | MLPKSFIKLLRSKVSSFLRPYK [SCUB3-MLP22] | potent activity | inhibitory activity | 3 orders of magnitude | reduced infections | 3 orders of magnitude | inhibitory activity | 3 orders of magnitude
2 | SKEMFPRSFIKLLRSKVSRFLRPYK [SCUB1-SKE25] | potent activity | inhibitory activity | 3 orders of magnitude | reduced infections | 3 orders of magnitude | inhibitory activity | 3 orders of magnitude
